Data reported in US20250222009A1, “DINUCLEAR GOLD(I) COMPLEXES FOR TREATING CANCER” (KING FAHD UNIVERSITY OF PETROLEUM AND MINERALS, priority 2024, published 2025).

Assays:
Assay type in all cases: cell-based, human
A549 cells [1] = assay: Cell cycle analysis (propidium iodide, flow cytometry); conditions: A549, 24 h, 0.06-0.60 μM
Method: (§1) 2.0×10^5 A549 cells were seeded in 6-well plates in a complete medium and treated with the complex 3. Assay results were detected by flow cytometry on a BD FACSCanto II flow cytometer. Data were analyzed using BD FACSDiva v.8.0.1 software (BD Biosciences) unless otherwise indicated. Tumor cells were treated for 72 h with complex 3, then stained for 15 minutes with FITC Annexin-V (Thermo Fisher Scientific) and 7AAD (BD Pharmingen, Milan, Italy). Activated caspase-3,7 was detected using the CaspaTag Caspase-3,7 assay (Merck Millipore) after an incubation of 24 h with complex 3. For B-cell lymphoma/leukemia-2 protein (Bcl-2) and Bcl-2 associated x protein (Bax) analysis, cells were treated for 72 h with C3, then fixed and permeabilized (FIX & PERM Cell Fixation & Cell Permeabilization Kit, Life Technologies). […] The distribution of cells in different cell cycle phases was quantified using ModFit LT 4.0 software (Verity Software House, Topsham, ME, USA) (See: Sulaiman, A. A. A.; Casagrande, N.; Borghese, C.; Corona, G.; Isab, A. A.; Ahmad, S.; Aldinucci, D.; Altaf M. Design, Synthesis, and Preclinical Activity in Ovarian Cancer Models of New Phosphanegold(I)—N-Heterocyclic Carbene Complexes. J Med Chem 2022, 65, 14424-14440, which is incorporated herein by reference in its entirety). […]

A549 cells [2] = assay: Annexin-V-FITC/7AAD apoptosis, flow cytometry; conditions: A549, 72 h, 0.06-0.60 μM
Method: as §1

A549 (lung cancer cells) = assay: MTT cytotoxicity assay, A549; conditions: 72 h
Method: (§2) The human epithelial ovarian cancer A2780 cell line and its cisplatin-resistant clone A2780cis were obtained from Sigma-Aldrich (Milano, Italy). A2780cis cells were continuously exposed to 1 μM cisplatin to maintain cisplatin resistance. A549 cells (Human non-small cell lung cancer), MCF7 (metastatic breast cancer), PC3 (highly aggressive metastatic prostate cancer), and MG63 (osteosarcoma) were obtained from the American Type Culture Collection (ATCC). Cells were authenticated in laboratory using the PowerPlex 16 HS System. A2780, A2780cis, and PC3 cells were cultured in RPMI-1640 medium; MG63 and MCF7 cells were cultured in DMEM, and A549 cells were cultured in F12 NUT-MIX. The culture medium contained about 10% fetal bovine serum (FBS) (Gibco, Thermo Fisher Scientific, Monza, Italy), about 1% (v/v) of penicillin (10,000 units/mL)-streptomycin (10 mg/mL), and about 1% (v/v) L-glutamine (200 mM) (all from Sigma-Aldrich). Cells were cultured at 37° C. in a 5% CO2, fully humidified atmosphere.
(§3) 2.5×10^3 (PC3, MG63, MCF7) or 4.0×10^3 (A2780, A2780cis, A549) cells were seeded in 96-well microplates in 100 μL culture medium. Cells, allowed to adhere for 24 h, were then treated in triplicate with increasing concentrations of gold compounds. Cisplatin was included as a reference drug. Cell viability was evaluated using 3-(4,5-dimethylthiazol-2-yl)-2,5-diphenyltetrazolium bromide (MTT) assay (Sigma-Aldrich) after 72 h of treatment. Half maximal inhibitory concentrations (IC50), IC25, and IC75 were calculated using the CalcuSyn software version 2 (Biosoft, Ferguson, MO, USA) (See: Chou, T. C.; Talalay, P. Quantitative Analysis of Dose-Effect Relationships: The Combined Effects of Multiple Drugs or Enzyme Inhibitors. Adv. Enzyme Regul. 1984, 22, 27-55, which is incorporated herein by reference in its entirety). Fold resistance was calculated as the ratio of the IC50 of the A2780cis to that of the parental cell line A2780. Alternatively, cell viability was assayed by crystal violet staining (See: Feoktistova, M.; Geserick, P.; Leverkus, M. Crystal Violet Assay for Determining Viability of Cultured Cells. Cold Spring Harb Protoc 2016, 2016, pdb.prot087379, which is incorporated herein by reference in its entirety). Alternatively, after drug treatment, the culture Medium was removed, cells washed, fixed, and stained, and the Crystal Violet solution lasted 20 minutes (See: Sulaiman, A. A. A.; Casagrande, N.; Borghese, C.; Corona, G.; Isab, A. A.; Ahmad, S.; Aldinucci, D.; Altaf M. Design, Synthesis, and Preclinical Activity in Ovarian Cancer Models of New Phosphanegold(I)—N-Heterocyclic Carbene Complexes. J Med Chem 2022, 65, 14424-14440, which is incorporated herein by reference in its entirety).

[3] = tested on: A2780 ovarian cancer cells; assay: MTT cytotoxicity assay, A2780; conditions: 72 h, mean (SD)
Method: as §2, §3

Bcl-2 = Bcl-2 expression, flow cytometry; conditions: A549, 72 h
Method: as §1

In the case of `CC(C)c1cccc(C(C)C)c1-n1ccn(-c2c(C(C)C)cccc2C(C)C)[c]1=[Au-][P+](CCNCC[P+]([Au-]=[c]1n(-c2c(C(C)C)cccc2C(C)C)ccn1-c1c(C(C)C)cccc1C(C)C)(C1CCCCC1)C1CCCCC1)(C1CCCCC1)C1CCCCC1` [Complex 3, [(Au(IPr))2(C28H24P2)](PF6)2], the “cells in G0/G1 phase of the cell cycle” value (A549 cells [1]) is reported as “accumulation”, the “cells in S phase of the cell cycle” value (A549 cells [1]) is reported as “decrease” and the “percentage of Annexin-V-positive cells (early apoptosis)” value (A549 cells [2]) is reported as “increased in a dose-dependent manner”. For the same compound, the “percentage of double stained Annexin-V/7AAD-positive cells (late apoptosis)” value (A549 cells [2]) was “increased in a dose-dependent manner”, the “IC25 A549” value (A549 (lung cancer cells)) was 60 nM and the “IC75 A549” value (A549 (lung cancer cells)) was 600 nM. The IC50 (A549 (lung cancer cells); mean (SD)) was 130 nM, the IC50 [3] was 110 nM and the “anti-apoptotic BCL-2 expression” value (Bcl-2) was “down-regulated”.
